Results reported in patent US20090136720A1, “Azo Compound, Ink Composition, Recording Method and Colored Article” (priority 2006, published 2009).

Assay: Solubility of the azo compound
Type: physicochemical
Details: water; sodium salt

Cc1cc(N=Nc2c(S(=O)(=O)O)cc3c(S(=O)(=O)O)c(N=Nc4cc(S(=O)(=O)O)c5cc(S(=O)(=O)O)c(N=Nc6ccc([N+](=O)[O-])cc6S(=O)(=O)O)c(O)c5c4N)ccc3c2O)c(OCCCS(=O)(=O)O)cc1N=Nc1cc(S(=O)(=O)O)cc2cc(S(=O)(=O)O)cc(O)c12 [Compound No. 3] showed a solubility of at least 100 mg/mL.
